Reference: paper PMC4569013, “Massive Bioaccumulation and Self‐Assembly of Phenazine Compounds in Live Cells” (Advanced Science, 2015)

Experiments:
[1] = system: RAW264.7 macrophages; assay: Cell accumulation experiment, transmitted light microscopy of cellular staining pattern; assay type: cell-based; settings: for Inferred uptake: inferred from staining pattern after 72 hour incubation; for Observed cellular staining pattern (Notes): live cells, 72 hour incubation, 5 × 10^−6 M (2.5 × 10^−6 M for I); for Cellular staining relative to clofazimine: live macrophages, 72 h; for Staining in fixed cells: methanol-fixed cells incubated 72 h with compound (control)
[2] = system: MDCK epithelial cells; assay: Confocal fluorescence microscopy, intracellular localization of inclusions; assay type: cell-based, Canine; settings: 5 × 10^−6 M, 72 h, live cells
Protocol: Confocal Fluorescent Microscopy: A Nikon A1 confocal microscope was used for further investigation of live cells incubated with chiral pairs of compounds (T and U) and the parent compound, P. Since crystals or vesicular forms containing chemicals inside the cells incubated with Compound P, T, or U were fluorescent when viewed with the TRITC filter sets, intracellular distribution of these compounds in RAW264.7 or MDCK cells were visualized using a Nikon A1 confocal microscopy (Nikon Instruments Inc., Melville, NY) equipped with diode‐based lasers and a Nikon Apo 60×/1.4 NA oil immersion lens. Briefly, RAW264.7 macrophages or MDCK epithelial cells were seeded in the 8‐well Nunc Lab‐Tek II chambered (#1.5) cover glasses (Thermo Scientific, Pittsburgh, PA) at a density of 8 × 10^3 cells cm^−2 (RAW264.7 cells) or 1.5 × 10^4 cells cm^−2 (MDCK cells) and allowed to adhere overnight (37 °C, 5% CO2). Then, 5 × 10^−6 M of Compound “P” or the related isomers, “T” or “U” in DMEM with 5% FBS (300 μL) was added to the cells and the cells were incubated for 72 h (37 °C, 5% CO2). For live cell imaging, after the removal of media, cells were washed with HBSS buffer twice. Hoechst 33342 (Invitrogen, Carlsbad, CA) was used for staining cell nuclei and FM 1‐43 (Molecular Probes T35356, Invitrogen) for the plasma membrane. Cells were incubated with 300 μL of 1:1 (v/v) dye mixtures of 5 μg mL^−1 Hoechst 33342 and 7 × 10^−6 M FM 1‐43 in HBSS for 15 min at room temperature. Without fixative, the confocal imaging of the live cells was performed using lasers for DAPI (excitation/emission wavelength: 405 nm/450 ± 25 nm), FITC (488 nm/525 ± 25 nm), and TRITC (561 nm/596 ± 25 nm) channels. Z‐stack images of the cells were captured along the Z‐axis (interval, 1 μm) in three fluorescence channels and analyzed by using the Nikon NIS‐Elements 3.2 confocal software (Nikon Instruments Inc., Melville, NY). […]

[3] = system: RAW264.7 macrophages; assay: Cell associated mass measurements (bioaccumulation, pmole/cell); assay type: cell-based; settings: 72 h incubation, normalized by number of cells
Protocol: Cell Associated Mass Measurements: […] After an overnight incubation (37 °C, 5% CO2), cells were incubated with 100 μL of the media (DMEM with 5% FBS) containing 5 × 10^−6 M clofazmine or its chemical derivatives (2.5 × 10^−6 M of Compound “I”). Media containing each compound was replaced every day during the 72 h incubation. After the incubation, media was removed and cells were washed with Hank's balanced salt solution (HBSS) buffer (No. 14025; Invitrogen) twice. RAW264.7 macrophage cells in buffer were scraped and MDCK epithelial cells were exposed to Trypsin‐EDTA solution for detachment from the plates for cell number counting and quantification of cell‐associated masses. After centrifugation (650 × g), supernatant was removed and cell pellets were resuspended in 0.1 M citric acid/0.1 M trisodium citrate buffer (pH 5) for cell counting as previously reported.7 Equal numbers of cells in 100 μL in buffer were transferred to 96 well plates and 100 μL of detergent (ATCC, 30‐1010K) was added into wells for cell lysis. Chemical absorbance from each well was measured by the UV–vis microplate reader (Synergy 2, BioTek Instruments, Winooski, VT) at 490 nm wavelength and cell‐associated mass of each compound was calculated by a standard curve generated separately using the same media and presented as pmole/cell by normalizing the amount of chemical in each cell population sample by the number of cells in each sample.

Row | SMILES | Inferred uptake [1] | Observed cellular staining pattern (Notes) [1] | Cellular staining relative to clofazimine [1] | Staining in fixed cells [1] | Intracellular localization of compound (fluorescence, TRITC channel) [2] | Accumulation in macrophages [3]
1 | Clc1ccc(Nc2cc3nc4ccccc4n(-c4ccc(Cl)cc4)c-3cc2=NCCc2ccccc2)cc1 [Compound P] | Excellent | Large fibrous/crystal-like brown inclusions present in live cells | more prominent staining patterns | absent in fixed cells | localized at the periphery of the cell nuclei | greatest accumulation
2 | C[C@@H](CN=c1cc2n(-c3ccc(Cl)cc3)c3ccccc3nc-2cc1Nc1ccc(Cl)cc1)c1ccccc1 [Compound U] | Good | Fibrous/crystal-like brown inclusions with orange perinuclear vesicles are present in live cells | prominent cellular staining | absent in fixed cells | localized at the periphery of the cell nuclei | greatest accumulation
